According to paper PMC9287337 (Scientific Reports, 2022):

Assays:
Type in all cases: cell-based, mouse
C2C12 cells [1] = assay: Live cell count (acridine orange/propidium iodide); details: 24 h; for Average increase in number of cells compared to control: average over 0.01–10 µM
Experimental: For the concentrations tested, SY-LB-35 increased the number of cells by an average of approximately 40% (Fig. 4A) and SY-LB-57 enhanced cell numbers to an average increase of 70% compared to the control (Fig. 4B). […] Moreover, both novel compounds induce a substantial proliferative effect in C2C12 cells.
C2C12 mouse myoblast cells (ATCC®, Manassas, VA, USA) were maintained in complete growth media (DMEM/10% FBS/1X Penicillin/Streptomycin/Glutamine solution (PSG)) at 37 °C in 5% CO2. DMEM media (Dulbecco’s Modified Eagle’s Medium with high glucose and L-glutamine and without sodium pyruvate) was from Caisson Labs (Smithfield, UT, USA). FBS was from Atlanta Biologicals (Flowery Branch, GA, USA). To determine the cell concentration, 18 µL cell suspension was mixed with 2 µL Acridine orange/Propidium iodide stain (Logos Biosystems, Annandale, VA, USA). Next, the cell concentration and percent viability were determined from 10 µL stained cells using the Luna-FL™ Dual Fluorescence Cell Counter from Logos Biosystems. For cell counts following treatment with SY-LB-35 or SY-LB-57, C2C12 cells (500 µL) were seeded into 24-well plates at 1 × 10^5 cells/mL, grown to 80% confluency, serum-starved for 16–18 h using Serum-Starvation Medium (SS medium: DMEM/1X Penicillin/Streptomycin solution (PS)) and treated for 24 h with the novel compounds. The treated cells were then collected by trypsinization, pelleted at 2000 rpm for 3 min at RT, resuspended and counted.

p-p38 = assay: Western blot of p-p38; details: 0.01–10 µM, 15 min
Experimental: (§1) Whole cell lysates were prepared from the treated cultures for Western blot analysis.
(§2) C2C12 cells (3 mL) were seeded into 35 mm dishes at 7.5 × 10^4 cells/mL in complete growth medium, incubated to reach 80% confluence and serum-starved for 16–18 h. […] Thereafter, the cultures were washed with ice-cold 1X TBS for 2 min. Lysis Buffer (Cell Signaling Technology, Danvers, MA, USA) supplemented with 1 mM PMSF (phenylmethylsulphonyl fluoride) was added to the cultures and whole cell lysates were prepared.
(§3) Laemmli sample buffer (4X) was added to the whole cell lysates (20 µg) to a final concentration of 1X and heated at 100 °C for 5 min. The samples were immediately cooled on ice for 5 min and centrifuged at 9500 rpm for 2 min at RT. The samples and the Precision Plus Protein Standard (5 µL; Bio-Rad, Hercules, CA, USA) were loaded on 12% SDS polyacrylamide gels. […] Finally, the blots were developed using SuperSignal ™ West Femto HRP Substrate solutions (Thermo Scientific, Rockford, IL, USA) and analysed using the Omega Lum™ G Imaging System (San Francisco, CA, USA). Quantification of chemiluminescent signals was carried out using ImageJ (Image Processing and Analysis in Java 1.8.0_112).

p-JNK = assay: Western blot of p-JNK; details: 0.01–10 µM, 15 min
Experimental: as §1, §2, §3

C2C12 cells [2] = assay: Cell cycle analysis by flow cytometry; details: 24 h
Experimental: C2C12 cells were starved in SS medium followed by 24-h treatment with 0.01–10 µM SY-LB-35 or SY-LB-57. The distribution of cell cycle phases was analyzed with respect to the control, untreated cells (Fig. 9). […] Furthermore, the percentage of cells in G0/G1 phase decreased with respect to control following the treatment of C2C12 cells with the indolyl-benzimidazole compounds (****p < 0.0005; ***p < 0.001; **p < 0.01; Fig. 9A). Thus, SY-LB-35 and SY-LB-57 at all tested concentrations shifted the cell cycle in C2C12 cells toward proliferation causing a significant decline in the population of cells in G0/G1 phase and a sharp increase in the percentage of cells present in proliferative phases of the cell cycle (S and G2/M).
Equal numbers (~ 10^6) of cells, from each treatment counted as above were collected, fixed with 4% paraformaldehyde (PFA) for 10 min at RT and pelleted at 300 g for 5 min. Cell pellets were washed with Stain buffer (BD Pharmingen, San Diego, CA, USA) followed by permeabilization with 90% ice-cold methanol for 15 min at 4 °C. The cells were again washed with Stain buffer and the pelleted cells were stained with BD Pharmingen Propidium Iodide/RNase Staining Buffer (0.5 mL/10^6 cells) for 30 min at RT while protected from light. Following two more washes, the pellet was resuspended in 225 µL Stain buffer and the cells were divided into 3 microcentrifuge tubes (75 µL each) for analysis with the Amnis® Flowsight Imaging Flow Cytometer (Austin, TX, USA). IDEAS® software (version 6.2, Seattle, WA, USA) was used to analyse the data files.

Compound | Cell number (C2C12 cells [1]; 0.01 µM) | Cell number (C2C12 cells [1]; 0.1 µM) | Cell number (C2C12 cells [1]; 1 µM) | Cell number (C2C12 cells [1]; 10 µM) | Average increase in number of cells compared to control (C2C12 cells [1]) | p-p38 level (p-p38) | p-JNK level (p-JNK) | Cells in G0/G1 phase (C2C12 cells [2]; 0.01 µM) | Cells in G2/M phase (C2C12 cells [2]; 0.01 µM) | Cells in S phase (C2C12 cells [2]; 0.01 µM) | Cells in G0/G1 phase (C2C12 cells [2]; 0.1 µM) | Cells in G2/M phase (C2C12 cells [2]; 0.1 µM) | Cells in S phase (C2C12 cells [2]; 0.1 µM) | Cells in G0/G1 phase (C2C12 cells [2]; 1 µM) | Cells in G2/M phase (C2C12 cells [2]; 1 µM) | Cells in S phase (C2C12 cells [2]; 1 µM) | Cells in G0/G1 phase (C2C12 cells [2]; 10 µM) | Cells in G2/M phase (C2C12 cells [2]; 10 µM) | Cells in S phase (C2C12 cells [2]; 10 µM)
Oc1ccc2[nH]c(-c3nc4ccccc4[nH]3)cc2c1 [SY-LB-35] | 6.8 × 10^5 cells | 6.6 × 10^5 cells | 6.8 × 10^5 cells | 6.4 × 10^5 cells | approximately 40% | stimulated increases | stimulated increases | 76% | 13% | 11% | 76% | 12% | 12% | 77% | 11% | 12% | 76% | 11% | 12%
COc1ccc2[nH]c(-c3nc4ccccc4[nH]3)cc2c1 [SY-LB-57] | 7.4 × 10^5 cells | 6.5 × 10^5 cells | 7.2 × 10^5 cells | 6.0 × 10^5 cells | 70% | stimulated increases | stimulated increases | 76% | 13% | 13% | 76% | 11% | 14% | 77% | 11% | 12% | 79% | 10% | 13%
